In data set [1] the target is T1, UDP-glucuronosyltransferase 1A10 (Homo sapiens, UniProt Q9HAW8).
T1 sequence (Q9HAW8 whole entry): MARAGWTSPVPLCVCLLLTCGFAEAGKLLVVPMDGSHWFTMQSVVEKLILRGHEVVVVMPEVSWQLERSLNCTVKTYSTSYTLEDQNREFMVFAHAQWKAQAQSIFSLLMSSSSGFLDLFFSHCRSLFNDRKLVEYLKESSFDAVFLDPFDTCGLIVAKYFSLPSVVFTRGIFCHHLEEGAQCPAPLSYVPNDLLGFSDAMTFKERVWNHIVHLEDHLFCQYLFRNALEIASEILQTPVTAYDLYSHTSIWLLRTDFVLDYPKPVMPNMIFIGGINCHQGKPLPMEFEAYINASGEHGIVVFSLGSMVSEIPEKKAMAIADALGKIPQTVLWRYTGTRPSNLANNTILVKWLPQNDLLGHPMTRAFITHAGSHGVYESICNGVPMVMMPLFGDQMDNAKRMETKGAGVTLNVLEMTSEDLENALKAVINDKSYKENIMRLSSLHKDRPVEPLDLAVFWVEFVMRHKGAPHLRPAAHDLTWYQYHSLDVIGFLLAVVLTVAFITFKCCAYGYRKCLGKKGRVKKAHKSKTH
As to the kind of experiment: Activity of human recombinant UGT1A10 expressed in baculovirus-infected insect cells assessed as intrinsic clearance for enzyme-mediated glucuronide formation per mg of protein at 1 to 250 uM after 10 mins in presence of UDPGA. The class given is ADME.

For data set [2], the system named is Liver microsome. As to the kind of experiment: Intrinsic clearance in human liver microsomes assessed per mg of protein at 1 to 250 uM after 10 mins in presence of UDPGA. It counts as ADME. In general terms: Liver microsomes are vesicles of endoplasmic reticulum, rich in cytochrome P450 enzymes.
Data set [3] is described as follows: Substrate inhibition in human intestinal microsomes after 5 mins by Michaelis-Menten plot analysis in presence of UDPGA. The class given is ADME, Intestine, Microsome.
The target of data set [4] is T2, UDP-glucuronosyltransferase 1A8 (Homo sapiens, UniProt Q9HAW9).
T2 sequence (Q9HAW9 whole entry): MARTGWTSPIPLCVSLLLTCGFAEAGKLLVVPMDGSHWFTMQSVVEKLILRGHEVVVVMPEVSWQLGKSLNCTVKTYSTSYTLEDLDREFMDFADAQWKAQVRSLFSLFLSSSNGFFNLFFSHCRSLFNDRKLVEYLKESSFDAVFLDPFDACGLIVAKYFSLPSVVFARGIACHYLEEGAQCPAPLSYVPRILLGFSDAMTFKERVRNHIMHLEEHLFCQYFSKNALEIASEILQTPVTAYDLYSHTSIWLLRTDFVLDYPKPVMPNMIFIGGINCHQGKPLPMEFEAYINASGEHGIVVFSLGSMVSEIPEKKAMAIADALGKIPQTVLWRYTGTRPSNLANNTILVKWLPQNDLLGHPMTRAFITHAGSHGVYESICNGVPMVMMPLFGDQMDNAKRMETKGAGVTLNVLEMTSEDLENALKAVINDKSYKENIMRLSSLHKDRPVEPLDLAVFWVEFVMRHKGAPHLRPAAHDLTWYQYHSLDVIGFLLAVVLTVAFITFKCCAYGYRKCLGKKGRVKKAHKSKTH
As to the kind of experiment: Activity of human recombinant UGT1A8 expressed in baculovirus-infected insect cells assessed as enzyme-mediated glucuronidation per mg of protein after 10 mins in presence of UDPGA. It counts as ADME.

In data set [5] the target is T3, UDP-glucuronosyltransferase 2B4 (Homo sapiens, UniProt P06133).
T3 sequence (P06133 whole entry): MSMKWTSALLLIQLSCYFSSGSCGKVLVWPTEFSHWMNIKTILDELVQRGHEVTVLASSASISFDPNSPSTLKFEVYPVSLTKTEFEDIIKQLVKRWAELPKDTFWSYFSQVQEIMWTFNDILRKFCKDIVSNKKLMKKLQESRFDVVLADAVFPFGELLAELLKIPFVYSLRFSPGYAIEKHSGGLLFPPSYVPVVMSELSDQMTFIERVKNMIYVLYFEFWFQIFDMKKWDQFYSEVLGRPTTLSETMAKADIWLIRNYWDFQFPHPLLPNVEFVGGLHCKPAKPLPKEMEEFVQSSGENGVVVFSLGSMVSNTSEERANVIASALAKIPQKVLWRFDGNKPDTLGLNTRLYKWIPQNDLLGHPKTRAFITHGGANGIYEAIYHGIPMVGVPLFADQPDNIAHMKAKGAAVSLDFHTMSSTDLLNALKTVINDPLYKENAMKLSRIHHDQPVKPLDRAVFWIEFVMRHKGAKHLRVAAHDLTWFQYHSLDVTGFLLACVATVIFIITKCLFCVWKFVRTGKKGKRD
In words: Activity of human recombinant UGT2B4 expressed in baculovirus-infected insect cells assessed as enzyme-mediated glucuronidation per mg of protein after 10 mins in presence of UDPGA. It counts as ADME.

Data set [6] has as its target T4, UDP-glucuronosyltransferase 2B17 (Homo sapiens, UniProt O75795).
T4 sequence (O75795 whole entry): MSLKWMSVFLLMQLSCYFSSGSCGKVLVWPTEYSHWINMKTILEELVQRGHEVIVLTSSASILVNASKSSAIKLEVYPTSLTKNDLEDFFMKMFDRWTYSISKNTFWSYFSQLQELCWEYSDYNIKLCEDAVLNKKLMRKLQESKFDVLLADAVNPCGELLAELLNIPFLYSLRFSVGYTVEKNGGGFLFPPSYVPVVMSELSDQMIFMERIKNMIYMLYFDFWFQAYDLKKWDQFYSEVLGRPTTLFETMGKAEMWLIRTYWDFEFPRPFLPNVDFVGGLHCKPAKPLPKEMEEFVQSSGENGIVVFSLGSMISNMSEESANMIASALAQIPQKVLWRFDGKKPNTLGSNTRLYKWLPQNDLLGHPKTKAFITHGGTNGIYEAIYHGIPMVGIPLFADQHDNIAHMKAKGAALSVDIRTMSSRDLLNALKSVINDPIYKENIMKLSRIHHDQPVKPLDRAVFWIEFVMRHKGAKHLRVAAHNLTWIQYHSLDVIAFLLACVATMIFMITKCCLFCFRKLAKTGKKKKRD
In words: Activity of human recombinant UGT2B17 expressed in baculovirus-infected insect cells assessed as enzyme-mediated glucuronidation per mg of protein after 10 mins in presence of UDPGA. The class given is ADME.

The target of data set [7] is T2, UDP-glucuronosyltransferase 1A8. As to the kind of experiment: Inhibition of human recombinant UGT1A8 after 10 mins in presence of UDPGA. The class given is ADME.
Data set [8] shares this target. As to the kind of experiment: Activity of human recombinant UGT1A8 expressed in baculovirus-infected insect cells assessed as intrinsic clearance for enzyme-mediated glucuronide formation per mg of protein at 1 to 250 uM after 10 mins in presence of UDPGA. The class given is ADME.
Data set [9] relates to Liver microsome. In words: Unbound intrinsic clearance in human liver microsomes assessed per mg of protein after 10 mins in presence of UDPGA and 0.1% fatty acid free BSA. The class given is ADME.
Data set [10] is described as follows: Drug metabolism in human intestinal microsomes assessed as glucuronidation after 10 mins by Michaelis-Menten plot. The class given is ADME, Intestine, Microsome.
A short description of data set [11]: Fraction unbound in human liver microsomes at 1 to 250 uM after 10 mins by ultrafiltration method in presence of 0.5% fatty acid free BSA. It counts as ADME.
The nature of data set [12]: Fraction unbound in human liver microsomes at 1 to 250 uM after 10 mins by ultrafiltration method in presence of 2% fatty acid free BSA. The class given is ADME.
Data set [13] is described as follows: Fraction unbound incubation mixture containing human recombinant UGT1A9 at 1 to 250 uM after 10 mins by ultrafiltration method in presence of 0.1% fatty acid free BSA.

Each structure is given as a SMILES string.

What is called Km is the substrate concentration at which the rate is half of its maximum. As a reminder, the fraction unbound is the share of the substance not bound to proteins or other matrix.

As to `COc1ccc(C(=O)Nc2cccc(O)c2NC(=O)c2ccc(N3CCCN(C)CC3)cc2)cc1.O=C(O)CCC(=O)O`, the figures for the clearance in data set [1] and in [8] were 39.8 µL/min/mg and 51.5 µL/min/mg, respectively. Also, the CLint in data set [2] amounted to 8.71 µL/min/mg. Further, the Ki in data set [3] came out at 463 µM; in [7], 354 µM. For the same compound, the Drug metabolism is 0.393 nmol/min/mg in data set [4], < 0.01 nmol/min/mg in data set [5] and < 0.01 nmol/min/mg in [6]. The CL free in data set [9] amounted to 184 µL/min/mg. For the same compound, the Michaelis constant (Km) at 10 min in [10] was determined as 27.3 µM. Also, the fraction unbound at 10 min, up to 250 µM amounted to 0.517 in [11] and 0.251 in data set [12]. In addition, the Fu in data set [13] came out at 0.755.

The record behind these values is ChEMBL document CHEMBL3526122, “Identification of UDP-glucuronosyltransferases responsible for the glucuronidation of darexaban, an oral factor Xa inhibitor, in human liver and intestine” (Drug Metab Dispos, 2012).
